Data as given in ChEMBL document CHEMBL3832035, “DailyMed|setid=5c133dfe-3cb5-426b-ac30-daf814e12c47 | FAMCICLOVIR - famciclovir tablet, film coated|Golden State Medical Supply, Inc”.
Values joined by “and” are separate entries in the source; they are usually repeats but may differ in a detail not shown here. Equal entries are not always repeated.

Test system: Homo sapiens
Experiment: Mean pharmacokinetic parameters for Penciclovir following single dose oral or IV administration of […] to healthy adult subjects and patients with different degrees of renal impairment.
Type: ADME, organism-based
Design: dose 1000 mg, dose 250 mg, dose 125 mg, dose 500 mg, route oral
Conditions: in vivo, regimen Single dose; for Excretion: tissue Urine
[1] = iv, dosed compound id 4, dosed compound name PENCICLOVIR, gender male, tissue Plasma
[2] = po, dose 500 mg, dosed compound id 40, dosed compound name FAMCICLOVIR, gender male, tissue Plasma

Excretion (iv, 5 mg/kg, dosed compound id 4, dosed compound name PENCICLOVIR, gender male, study dosing duration 24 hours): 91%
F (iv, at 400 mg, dosed compound id 4, dosed compound name PENCICLOVIR, gender male, route oral, tissue Plasma): 77%
Vd_beta (iv, dose 400 mg, dosed compound id 4, dosed compound name PENCICLOVIR, gender male, tissue Plasma): 1.08 L/kg
CL [1]: 36.6 L/h
t1/2 [1]: 2 h
Excretion (po, at 500 mg, dosed compound id 40, dosed compound name FAMCICLOVIR, gender male, study dosing duration 72 hours): 82%
CL_renal (po, dose 500 mg, dosed compound id 40, dosed compound name FAMCICLOVIR, gender female, tissue Plasma): 21.8 L/h
CL_renal [2]: 28.5 L/h and 27.7 L/h
Tmax [2]: 0.9 h
t1/2 [2]: 2.3 h
AUC (po, dosed compound id 40, dosed compound name FAMCICLOVIR, gender female, tissue Plasma): 11100 ng·h/mL
AUC (po, dosed compound id 40, dosed compound name FAMCICLOVIR, gender male, tissue Plasma): 9300 ng·h/mL
Structure (SMILES): Nc1nc2c(ncn2CCC(CO)CO)c(=O)[nH]1 [PENCICLOVIR]
